According to PubChem BioAssay (NCI):
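Grown in 96-well plates, cells were treated for 48 hours with each compound at five concentrations. Insufficient inhibition: endpoint recorded as highest concentration tested. Definition used: TGI = concentration required for complete inhibition of growth.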

Assays:
Assay in all cases: NCI anticancer screen, dose series, 48 h
[1] = tested on: 786-0 renal
[2] = tested on: A498 renal
[3] = tested on: A549 NSCLC
[4] = tested on: ACHN renal
[5] = tested on: BT-549 breast
[6] = tested on: CAKI-1 renal
[7] = tested on: CCRF-CEM leukemia
[8] = tested on: COLO 205 colon
[9] = tested on: DU-145 prostate
[10] = tested on: EKVX NSCLC
[11] = tested on: HCC-2998 colon
[12] = tested on: HCT-116 colon
[13] = tested on: HCT-15 colon
[14] = tested on: HOP-62 NSCLC
[15] = tested on: HOP-92 NSCLC
[16] = tested on: HS 578T breast
[17] = tested on: HT29 colon
[18] = tested on: IGROV1 ovarian
[19] = tested on: K-562 leukemia
[20] = tested on: KM12 colon
[21] = tested on: M14 melanoma
[22] = tested on: MALME-3M melanoma
[23] = tested on: MCF7 breast
[24] = tested on: MDA-MB-231 breast
[25] = tested on: MDA-MB-435
[26] = tested on: MDA-N
[27] = tested on: MOLT-4 leukemia
[28] = tested on: NCI-H226 lung
[29] = tested on: NCI-H23 lung
[30] = tested on: NCI-H460 lung
[31] = tested on: NCI/ADR-RES ovarian
[32] = tested on: OVCAR-3 ovarian
[33] = tested on: OVCAR-4 ovarian
[34] = tested on: OVCAR-5 ovarian
[35] = tested on: OVCAR-8 ovarian
[36] = tested on: PC-3 prostate
[37] = tested on: RXF 393 renal
[38] = tested on: SF-268 CNS
[39] = tested on: SF-295 CNS
[40] = tested on: SK-MEL-2 melanoma
[41] = tested on: SK-MEL-28 melanoma
[42] = tested on: SK-MEL-5 melanoma
[43] = tested on: SK-OV-3 ovarian
[44] = tested on: SN12C renal
[45] = tested on: SNB-19 CNS
[46] = tested on: SNB-75 CNS
[47] = tested on: SR leukemia
[48] = tested on: SW-620 colon
[49] = tested on: T-47D breast
[50] = tested on: TK-10 renal
[51] = tested on: U251 CNS
[52] = tested on: UACC-257 melanoma
[53] = tested on: UACC-62 melanoma
[54] = tested on: UO-31 renal
[55] = tested on: HL-60(TB) leukemia
[56] = tested on: LOX IMVI melanoma
[57] = tested on: NCI-H522 lung
[58] = tested on: RPMI-8226 leukemia
[59] = tested on: SF-539 CNS

## CON(C)C(=O)[C@H]1C[C@@]1(C)CO
[1]
  TGI: > 100 µM
[2]
  TGI: > 100 µM
[3]
  TGI: > 100 µM
[4]
  TGI: > 100 µM
[5]
  TGI: > 100 µM
[6]
  TGI: > 100 µM
[7]
  TGI: > 100 µM
[8]
  TGI: > 100 µM
[9]
  TGI: > 100 µM
[10]
  TGI: > 100 µM
[11]
  TGI: > 100 µM
[12]
  TGI: > 100 µM
[13]
  TGI: > 100 µM
[14]
  TGI: > 100 µM
[15]
  TGI: > 100 µM
[16]
  TGI: > 100 µM
[17]
  TGI: > 100 µM
[18]
  TGI: > 100 µM
[19]
  TGI: > 100 µM
[20]
  TGI: > 100 µM
[21]
  TGI: > 100 µM
[22]
  TGI: > 100 µM
[23]
  TGI: > 100 µM
[24]
  TGI: > 100 µM
[25]
  TGI: > 100 µM
[26]
  TGI: > 100 µM
[27]
  TGI: > 100 µM
[28]
  TGI: > 100 µM
[29]
  TGI: > 100 µM
[30]
  TGI: > 100 µM
[31]
  TGI: > 100 µM
[32]
  TGI: > 100 µM
[33]
  TGI: > 100 µM
[34]
  TGI: > 100 µM
[35]
  TGI: > 100 µM
[36]
  TGI: > 100 µM
[37]
  TGI: > 100 µM
[38]
  TGI: > 100 µM
[39]
  TGI: > 100 µM
[40]
  TGI: > 100 µM
[41]
  TGI: > 100 µM
[42]
  TGI: > 100 µM
[43]
  TGI: > 100 µM
[44]
  TGI: > 100 µM
[45]
  TGI: > 100 µM
[46]
  TGI: > 100 µM
[47]
  TGI: > 100 µM
[48]
  TGI: > 100 µM
[49]
  TGI: > 100 µM
[50]
  TGI: > 100 µM
[51]
  TGI: > 100 µM
[52]
  TGI: > 100 µM
[53]
  TGI: > 100 µM
[54]
  TGI: > 100 µM

## CC1=C(C)C(=O)O[C@@H]([C@](C)(O)[C@]2(O)CC[C@@]3(O)[C@@H]4C[C@H](O)[C@]5(O)[C@@H](O)C=CC(=O)[C@]5(C)[C@H]4CC[C@]23C)C1
[1]
  TGI: > 100 µM
[2]
  TGI: > 100 µM
[3]
  TGI: > 100 µM
[4]
  TGI: > 100 µM
[5]
  TGI: > 100 µM
[6]
  TGI: > 100 µM
[7]
  TGI: 89.5 µM
[8]
  TGI: > 100 µM
[9]
  TGI: > 100 µM
[10]
  TGI: > 100 µM
[11]
  TGI: > 100 µM
[12]
  TGI: > 100 µM
[13]
  TGI: > 100 µM
[55]
  TGI: 56.8 µM
[14]
  TGI: > 100 µM
[15]
  TGI: > 100 µM
[16]
  TGI: > 100 µM
[17]
  TGI: > 100 µM
[18]
  TGI: > 100 µM
[19]
  TGI: > 100 µM
[20]
  TGI: > 100 µM
[56]
  TGI: > 100 µM
[21]
  TGI: > 100 µM
[22]
  TGI: > 100 µM
[23]
  TGI: > 100 µM
[24]
  TGI: > 100 µM
[25]
  TGI: > 100 µM
[26]
  TGI: > 100 µM
[27]
  TGI: > 100 µM
[28]
  TGI: > 100 µM
[29]
  TGI: > 100 µM
[30]
  TGI: > 100 µM
[57]
  TGI: > 100 µM
[32]
  TGI: > 100 µM
[33]
  TGI: > 100 µM
[34]
  TGI: > 100 µM
[35]
  TGI: > 100 µM
[36]
  TGI: > 100 µM
[58]
  TGI: > 100 µM
[37]
  TGI: > 100 µM
[38]
  TGI: > 100 µM
[39]
  TGI: > 100 µM
[59]
  TGI: > 100 µM
[40]
  TGI: > 100 µM
[41]
  TGI: > 100 µM
[42]
  TGI: > 100 µM
[43]
  TGI: > 100 µM
[44]
  TGI: > 100 µM
[45]
  TGI: > 100 µM
[46]
  TGI: > 100 µM
[47]
  TGI: 84.3 µM
[48]
  TGI: > 100 µM
[49]
  TGI: > 100 µM
[50]
  TGI: > 100 µM
[51]
  TGI: > 100 µM
[52]
  TGI: > 100 µM
[53]
  TGI: > 100 µM
[54]
  TGI: > 100 µM

## CC(=O)OCC1OC(N2C(c3ccccc3)=CC(c3ccco3)C(C#N)=C2S)C(OC(C)=O)C(OC(C)=O)C1OC(C)=O (stereo not given)
[1]
  TGI: 5.93 µM
[2]
  TGI: > 63.3 µM
[3]
  TGI: > 65.6 µM
[4]
  TGI: 24.8 µM
[5]
  TGI: > 100 µM
[6]
  TGI: 34.1 µM
[7]
  TGI: > 100 µM
[8]
  TGI: 28.5 µM
[9]
  TGI: > 88.2 µM
[10]
  TGI: > 52.1 µM
[11]
  TGI: 48.9 µM
[12]
  TGI: 33.2 µM
[13]
  TGI: > 100 µM
[14]
  TGI: 19.5 µM
[15]
  TGI: 26.9 µM
[16]
  TGI: 7.61 µM
[17]
  TGI: > 100 µM
[18]
  TGI: > 67.1 µM
[19]
  TGI: > 100 µM
[20]
  TGI: > 100 µM
[56]
  TGI: > 46.4 µM
[21]
  TGI: 16.9 µM
[22]
  TGI: 13.6 µM
[23]
  TGI: > 82.4 µM
[24]
  TGI: 8.65 µM
[25]
  TGI: > 70.5 µM
[26]
  TGI: > 53.9 µM
[27]
  TGI: > 75.4 µM
[28]
  TGI: 24.3 µM
[29]
  TGI: 23.7 µM
[30]
  TGI: > 62.2 µM
[57]
  TGI: > 39.8 µM
[31]
  TGI: 39.9 µM
[32]
  TGI: 18.3 µM
[33]
  TGI: 9.16 µM
[34]
  TGI: 22 µM
[35]
  TGI: 12.1 µM
[36]
  TGI: > 38.6 µM
[58]
  TGI: > 45 µM
[37]
  TGI: 15.7 µM
[38]
  TGI: > 57.4 µM
[39]
  TGI: > 70.3 µM
[59]
  TGI: 5.35 µM
[40]
  TGI: 65.4 µM
[41]
  TGI: > 75.5 µM
[42]
  TGI: 17.9 µM
[43]
  TGI: 59 µM
[44]
  TGI: 26.2 µM
[45]
  TGI: 38.7 µM
[46]
  TGI: 8.9 µM
[47]
  TGI: > 37.5 µM
[48]
  TGI: 4.2 µM
[49]
  TGI: > 67.9 µM
[50]
  TGI: 37.5 µM
[51]
  TGI: 8.6 µM
[52]
  TGI: > 100 µM
[53]
  TGI: 65 µM
[54]
  TGI: 29.5 µM
